# Experiments:
# [1] = Lipid nanoparticle size and polydispersity by dynamic light scattering; assay type: physicochemical; conditions: LNP of cationic lipid/DSPC/cholesterol/PEG-lipid 50:10:38.5:1.5 with mRNA
# Protocol: (§1) Briefly, a cationic lipid provided herein, DSPC, cholesterol, and PEG-lipid were solubilized in ethanol at a molar ratio of 50:10:38.5:1.5, and mRNA were diluted in 10 to 50 mM citrate buffer, pH=4. The LNPs were prepared at a total lipid to mRNA weight ratio of approximately 10:1 to 30:1 by mixing the ethanolic lipid solution with the aqueous mRNA solution at a volume ratio of 1:3 using a microfluidic apparatus, total flow rate ranging from 9-30 mL/min. Ethanol were thereby removed and replaced by DPBS using dialysis. Finally, the lipid nanoparticles were filtered through a 0.2 μm sterile filter.
# (§2) Lipid nanoparticle size were determined by dynamic light scattering using a Malvern Zetasizer Nano ZS (Malvern UK) using a 173° backscatter detection mode. The encapsulation efficiency of lipid nanoparticles were determined using a Quant-it Ribogreen RNA quantification assay kit (Thermo Fisher Scientific, UK) according to the manufacturer's instructions.
# [2] = Encapsulation efficiency of lipid nanoparticles (Quant-it Ribogreen RNA assay); assay type: physicochemical; conditions: LNP of cationic lipid/DSPC/cholesterol/PEG-lipid 50:10:38.5:1.5 with mRNA
# Protocol: as §1, §2
# [3] = Apparent pKa of LNP formulations by TNS fluorescence assay; conditions: LNP cationic lipid/DSPC/cholesterol/DMG-PEG 50/10/38.5/1.5 mol %, pH 3 to 9
# Protocol: TNS was prepared as a 300 uM stock solution in distilled water. LNP formulations were diluted to 0.1 mg/ml total lipid in 3 mL of buffered solutions containing 50 mM sodium citrate, 50 mM sodium phosphate, 50 mM sodium borate, and 30 mM sodium chloride where the pH ranged from 3 to 9. An aliquot of the TNS solution was added to give a final concentration of 0.1 mg/ml and following vortex mixing fluorescence intensity was measured at room temperature in a Molecular Devices Spectramax iD3 spectrometer using excitation and mission wavelengths of 325 nm and 435 nm. A sigmoidal best fit analysis was applied to the fluorescence data and the pKa value was measured as the pH giving rise to half—maximal fluorescent intensity.
SMILES,polydispersity [1],size (nm) [1] [nm],Encapsulation Efficiency [2] [%],Apparant Pka [3]
CCCCCCCCC(CCCCCCCC)OC(=O)CCCCCCCOP(=O)(NCCCCN(C)C)OCCCCCCC (centres unmarked) [Compound 44],0.187,51.72,94.0,5.17
CCCCCCC(CCCCCC)COP(=O)(NCCN(CC)CC)OCC(CCCCCC)CCCCCC [Compound 65],0.085,95.97,94.1,6.133
CCCCCCCCC(CCCCCC)COP(=O)(NCCCN1CCOCC1)OCC(CCCCCC)CCCCCCCC (centres unmarked) [Compound 31],0.159,62.39,91.8,5.21
CCCCCCCCC(CCCC)COP(=O)(NCCN(CC)CC)OCC(CCCC)CCCCCCCC (centres unmarked) [Compound 75],0.023,138.2,92.1,6.603
CCCCCCCCC(CCCCCC)COP(=O)(NCCCCN(C)C)OCC(CCCCCC)CCCCCCCC (centres unmarked) [Compound 22],0.101,79.13,98.7,7.37
CCCCCCCCCCC(CCCCCCCC)COP(=O)(NCCN1CCCC1)OCC(CCCCCCCC)CCCCCCCCCC (centres unmarked) [Compound 79],0.053,71.16,96.3,6.457
CCCCCCCCC(CCCCCC)COP(=O)(NCCCN1CCCCCC1)OCC(CCCCCC)CCCCCCCC (centres unmarked) [Compound 29],0.09,84.8,58.9,5.51
CCCCCCCCC(CCCCCC)COP(=O)(NCCN1CCC(O)C1)OCC(CCCCCC)CCCCCCCC (centres unmarked) [Compound 63],0.148,53.85,97.0,6.892
CCCCCCCCCCCCCOP(=O)(OCCCCCCCCCCCCC)N1CCC(N2CCOCC2)CC1 [Compound 19],0.086,110.8,73.7,6.38
CCCCCCCCC(CCCCCC)C(C)OP(=O)(NCCN(CC)CC)OC(C)C(CCCCCC)CCCCCCCC (centres unmarked) [Compound 59],0.118,90.85,58.6,4.385
CCCCCCCC(CCCCCCC)COP(=O)(NCCN1CCCC1)OCC(CCCCCCC)CCCCCCC [Compound 85],0.153,53.57,71.7,5.216
CCCCCCCCCOC(=O)CCCCCOP(=O)(NCCCN(C)C)OCCCCCC(=O)OCCCCCCCCC [Compound 6],0.262,111.7,88.3,7.33
CCCCCCCCCCCCCOP(=O)(NC1CCN(C2CCOCC2)CC1)OCCCCCCCCCCCCC [Compound 16],0.113,305.4,79.9,7.75
CCCCCCCCC(CCCCCCCC)OC(=O)CCCCCCCOP(=O)(NCCCN(C)C)NCCCN(C)C [Compound 37],0.166,104.3,48.8,4.55
CCCCCCCCC(C)COP(=O)(NCCN(CC)CC)OCC(C)CCCCCCCC (centres unmarked) [Compound 69],0.355,68.3,87.1,7.408
CCCCCCCCC(CCCCCC)COP(=O)(NCCN(CC)CC)OCC(CCCCCC)CCCCCCCC (centres unmarked) [Compound 49],0.191,58.02,95.1,6.47

SMILES,polydispersity [1],size (nm) [1] [nm],Encapsulation Efficiency [2] [%],Apparant Pka [3]
CCCCCCCCC(CCCCCC)COP(=O)(NCCCN1CCC1)OCC(CCCCCC)CCCCCCCC (centres unmarked) [Compound 23],0.234,57.36,100.4,7.43
CCCCCCCCC(CCCCCC)COP(=O)(OCCN1CCCCC1)OCC(CCCCCC)CCCCCCCC (centres unmarked) [Compound 77],0.138,63.36,85.2,5.309
CCCCCCCCC(CCCCCCCC)OC(=O)CCCCCCCOP(=O)(NCCN(C)C)OCCCCCCCC(=O)OC(CCCCCCCC)CCCCCCCC [Compound 38],0.094,108.5,45.9,5.84
CCCCCCCCCCCCCOP(=O)(OCCCCCCCCCCCCC)N1CC2(CCN(C)CC2)C1 [Compound 20],0.068,92.15,94.2,5.81
CCCCCCCCCCC(CCCCCCCC)COP(=O)(NCCN(CC)CC)OCC(CCCCCCCC)CCCCCCCCCC (centres unmarked) [Compound 78],0.234,63.03,95.2,5.969
CCCCCCCCCOC(=O)CCCCCOP(=O)(NCCN(C)C)OCCCCCC(=O)OCCCCCCCCC [Compound 5],0.194,94.66,88.8,7.26
CCCCCCCCCCCCCOP(=O)(NCCN1CCCCC1)OCCCCCCCC(=O)OC(CCCCCCCC)CCCCCCCC (centres unmarked) [Compound 34],0.258,58.48,98.4,7.45
CCCCCCCCC(CCCCCC)COP(=O)(NCCN1CCCCCC1)OCC(CCCCCC)CCCCCCCC (centres unmarked) [Compound 28],0.204,77.49,48.1,4.92
CCCCCCCCC(CCCCCCCC)COP(=O)(NCCN(CC)CC)OCC(CCCCCCCC)CCCCCCCC [Compound 80],0.172,57.31,94.2,6.259
CCCCCCCCC(CCCCCC)COP(=O)(NCCN1CCCCC1)OCC(CCCCCC)CCCCCCCC (centres unmarked) [Compound 26],0.27,68.19,93.6,4.99
CCCCCCCCCCCCCOP(=O)(NCCCN(C)C)OCCCCCCCCCCCCC [Compound 10],0.116,138.3,96.2,6.94
CCCCCCCCCOC(=O)CCCCCCCOP(=O)(NCCCN(C)C)OCCCCCCCC(=O)OC(CCCCCCCC)CCCCCCCC (centres unmarked) [Compound 40],0.122,80.83,99.6,7.77
CCCCCCCCCCCCCOP(=O)(NCCCN1CCCCC1)OCCCCCCCC(=O)OC(CCCCCCCC)CCCCCCCC (centres unmarked) [Compound 35],0.245,62.7,99.9,9.42
CCCCCCCCC(CCC)COP(=O)(NCCN1CCCC1)OCC(CCC)CCCCCCCC (centres unmarked) [Compound 71],0.108,69.18,94.4,7.104
CCCCCCCCCOP(=O)(NCCCN(C)C)OCCCCCCCCC [Compound 4],0.055,72.06,73.2,8.26
CCCCCCCCCOC(=O)CCCCCOP(=O)(NCCCCN(C)C)OCCCCCC(=O)OCCCCCCCCC [Compound 2],0.181,116.8,98.5,9.07

# — patent publication US20220331414A1, “LIPID COMPOUNDS AND LIPID NANOPARTICLE COMPOSITIONS” (Suzhou Abogen Biosciences Co., Ltd., priority 2020, published 2022)
